Legend:
pYL42 and pYL53 strains = format: cell-based, Mycobacterium smegmatis
[1] = tested on: mc^27000:Δc− strain with pYL60 or pYL3; format: cell-based, M. tuberculosis

## CN[C@@H]1[C@H](O)[C@H](NC)[C@H]2O[C@]3(O)[C@H](O[C@@H]2[C@H]1O)O[C@H](C)C[C@H]3NC(=O)Cc1ccc(Cl)cn1 [Spa]
pYL42 and pYL53 strains
  bactericidal activity against pYL53 compared with pYL42 strain: at least an order of magnitude lower
[1]
  bactericidal activity against pYL60 strain compared with pYL3 control strain: significantly decreased
